Experimental data as given in patent publication EP0979831B1, “Antibacterial peptides and antibacterial agents containing such peptides as an effective ingredient” (National Institute of Agrobiological Sciences, priority 1998, dated 2003).
Values after ≈ are worked out from the molar mass of the structure shown. Residues, ends and D or L forms follow the SMILES beside them.

System: Escherichia coli
Assay type: cell-based
Experimental: Minimum Inhibitory Concentration (MIC) of these antibacterial peptides (1) to (5) against Staphylococcus aureus, methicillin resistant Staphylococcus aureus (MRSA), Escherichia coli and Pseudomonas aeruginosa was determined.

Row | Structure (SMILES) | MIC E coli [µg/mL]
1 | CC[C@H](C)[C@H](NC(=O)[C@H](C)NC(=O)[C@H](CC(C)C)NC(=O)[C@H](CCCNC(=N)N)NC(=O)[C@H](CC(C)C)NC(=O)[C@H](C)N)C(=O)N[C@@H](CCCNC(=N)N)C(=O)N[C@@H](CCCCN)C(=O)N[C@@H](CCCNC(=N)N)C(N)=O [present peptide (1), Ala Leu Arg Leu Ala Ile Arg Lys Arg] (H-ALRLAIRKR-NH2) | 4 (≈ 3.65 µM)
2 | CC[C@H](C)[C@H](NC(=O)[C@H](C)NC(=O)[C@H](CC(C)C)NC(=O)[C@H](CC(C)C)NC(=O)[C@H](Cc1c[nH]c2ccccc12)NC(=O)[C@H](C)N)C(=O)N[C@@H](CCCNC(=N)N)C(=O)N[C@@H](CCCCN)C(=O)N[C@@H](CCCNC(=N)N)C(N)=O [present peptide (3), Ala Trp Leu Leu Ala Ile Arg Lys Arg] (H-AWLLAIRKR-NH2) | 5 (≈ 4.44 µM)

The next lines start with the values.

Row | MIC E coli [µg/mL] | Structure (SMILES)
3 | 6 (≈ 5.7 µM) | CC[C@H](C)[C@H](NC(=O)[C@H](C)NC(=O)[C@H](CC(C)C)NC(=O)[C@H](CC(C)C)NC(=O)[C@H](CC(C)C)NC(=O)[C@H](C)N)C(=O)N[C@@H](CCCNC(=N)N)C(=O)N[C@@H](CCCCN)C(=O)N[C@@H](CCCNC(=N)N)C(N)=O [present peptide (2), Ala Leu Leu Leu Ala Ile Arg Lys Arg] (H-ALLLAIRKR-NH2)
4 | 4 (≈ 3.63 µM) | CC[C@H](C)[C@H](NC(=O)[C@H](C)NC(=O)[C@H](CC(C)C)NC(=O)[C@H](Cc1ccc(O)cc1)NC(=O)[C@H](CC(C)C)NC(=O)[C@H](C)N)C(=O)N[C@@H](CCCNC(=N)N)C(=O)N[C@@H](CCCCN)C(=O)N[C@@H](CCCNC(=N)N)C(N)=O [present peptide (4), Ala Leu Trp Leu Ala Ile Arg Lys Arg]
5 | 10 (≈ 8.89 µM) | CC[C@H](C)[C@H](NC(=O)[C@H](C)NC(=O)[C@H](CC(C)C)NC(=O)[C@H](Cc1c[nH]c2ccccc12)NC(=O)[C@H](CC(C)C)NC(=O)[C@H](C)N)C(=O)N[C@@H](CCCNC(=N)N)C(=O)N[C@@H](CCCCN)C(=O)N[C@@H](CCCNC(=N)N)C(N)=O [present peptide (5), Ala Leu Trp Leu Ala Ile Arg Lys Arg] (H-ALWLAIRKR-NH2)
